# Data published in patent US6017877A, “Method and composition for treating thrombosis” (priority 1994, dated 2000).
# Values joined by “and” are separate entries in the source; they are usually repeats but may differ in a detail not shown here. Equal entries are not always repeated. Where two headings read alike, the source gives them in different places.
# How the values were obtained:
# platelets [1] = assay: Platelet aggregation assay of Example XI; assay type: cell-based; conditions: for reactivity relative to 8X in platelet aggregation: fold more reactive than 8X
# Experimental: (§1) Platelet aggregation was assessed using the method of Born, Nature 194:927-929 (1962), incorporated herein by reference. Briefly, the change in light transmission was measured through a stirred suspension of platelets in an aggregometer (Model 400 VS, Chrono-Log, Havertown, Pa., USA). […] In studies using thrombin, the PRP was gel-filtered on Sepharose 2B in divalent ion-free Tyrode's solution containing 2% BSA. For all studies, the reference standard was platelet-poor plasma, which was obtained by centrifuging PRP at 1000× g for 5 min.
# (§2) (Platelet count was determined with the aid of a hemacytometer.) Peptides and stimulants were added to these suspensions in 1% dilutions. The PRP and gel-filtered platelets were used within three hours from the time of blood collection.
# GP IIb/IIIa = GP IIb/IIIa (Homo sapiens, UniProt P05106+P08514); assay: Inhibition of binding of various ligands to GP IIb/IIIa; conditions: fibrinogen vs fibronectin and vitronectin
# GP IIb/IIIa, sequence (P08514 32-887 limits assumed): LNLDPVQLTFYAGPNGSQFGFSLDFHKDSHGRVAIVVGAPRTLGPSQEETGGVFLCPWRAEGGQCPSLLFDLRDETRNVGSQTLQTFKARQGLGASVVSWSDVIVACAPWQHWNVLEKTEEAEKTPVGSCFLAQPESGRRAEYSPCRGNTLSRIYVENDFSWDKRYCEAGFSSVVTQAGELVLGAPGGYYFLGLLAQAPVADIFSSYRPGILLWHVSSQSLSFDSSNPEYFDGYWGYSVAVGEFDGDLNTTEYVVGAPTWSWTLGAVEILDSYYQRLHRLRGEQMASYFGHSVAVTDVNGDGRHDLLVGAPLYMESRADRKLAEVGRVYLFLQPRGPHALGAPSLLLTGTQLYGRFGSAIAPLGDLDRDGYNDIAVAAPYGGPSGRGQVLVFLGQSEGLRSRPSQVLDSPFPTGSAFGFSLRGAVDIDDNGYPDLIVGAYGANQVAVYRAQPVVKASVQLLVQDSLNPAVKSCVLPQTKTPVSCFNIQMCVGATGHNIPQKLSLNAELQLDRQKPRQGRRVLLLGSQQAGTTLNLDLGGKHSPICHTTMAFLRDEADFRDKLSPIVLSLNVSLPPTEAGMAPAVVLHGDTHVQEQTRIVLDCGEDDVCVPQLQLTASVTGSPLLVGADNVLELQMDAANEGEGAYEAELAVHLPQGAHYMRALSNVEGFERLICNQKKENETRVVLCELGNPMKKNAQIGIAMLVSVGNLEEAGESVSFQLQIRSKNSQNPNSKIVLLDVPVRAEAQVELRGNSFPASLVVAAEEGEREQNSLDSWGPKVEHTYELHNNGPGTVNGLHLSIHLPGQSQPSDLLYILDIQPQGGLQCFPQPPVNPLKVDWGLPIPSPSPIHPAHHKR
# GP IIb/IIIa, sequence (P08514 891-1039 partner limits assumed): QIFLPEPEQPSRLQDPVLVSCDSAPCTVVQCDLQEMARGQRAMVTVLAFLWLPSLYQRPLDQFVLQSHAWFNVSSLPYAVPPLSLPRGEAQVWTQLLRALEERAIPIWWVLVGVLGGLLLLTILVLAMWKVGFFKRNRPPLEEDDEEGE
# GP IIb/IIIa, sequence (P05106 27-788): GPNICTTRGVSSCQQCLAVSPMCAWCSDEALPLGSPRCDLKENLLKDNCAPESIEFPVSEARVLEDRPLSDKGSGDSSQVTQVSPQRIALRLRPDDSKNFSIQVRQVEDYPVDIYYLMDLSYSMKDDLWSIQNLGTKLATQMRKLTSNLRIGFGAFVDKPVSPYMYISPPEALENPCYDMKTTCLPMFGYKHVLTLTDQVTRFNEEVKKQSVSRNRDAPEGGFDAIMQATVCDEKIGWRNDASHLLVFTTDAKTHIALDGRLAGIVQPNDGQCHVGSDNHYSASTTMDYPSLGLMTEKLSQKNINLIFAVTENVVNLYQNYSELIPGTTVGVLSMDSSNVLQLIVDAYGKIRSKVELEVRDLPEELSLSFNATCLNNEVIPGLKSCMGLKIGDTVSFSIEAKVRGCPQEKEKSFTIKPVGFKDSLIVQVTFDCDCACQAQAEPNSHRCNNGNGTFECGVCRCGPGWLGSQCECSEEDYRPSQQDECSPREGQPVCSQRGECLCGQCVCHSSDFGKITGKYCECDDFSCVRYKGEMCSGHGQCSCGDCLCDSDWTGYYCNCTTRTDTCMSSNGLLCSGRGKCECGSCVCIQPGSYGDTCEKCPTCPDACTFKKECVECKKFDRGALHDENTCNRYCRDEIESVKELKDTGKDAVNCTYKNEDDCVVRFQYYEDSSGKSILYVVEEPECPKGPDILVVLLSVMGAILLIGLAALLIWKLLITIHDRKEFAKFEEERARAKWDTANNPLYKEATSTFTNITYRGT
# [2] = target: T1, vitronectin receptor (Vn-R) (Homo sapiens, UniProt P05106+P06756); assay: VnR binding, ELISA or liposome attachment assay (Table I)
# T1 construct: from tissue; host or cells: human placenta
# T1 sequence (P06756 31-889 limits assumed): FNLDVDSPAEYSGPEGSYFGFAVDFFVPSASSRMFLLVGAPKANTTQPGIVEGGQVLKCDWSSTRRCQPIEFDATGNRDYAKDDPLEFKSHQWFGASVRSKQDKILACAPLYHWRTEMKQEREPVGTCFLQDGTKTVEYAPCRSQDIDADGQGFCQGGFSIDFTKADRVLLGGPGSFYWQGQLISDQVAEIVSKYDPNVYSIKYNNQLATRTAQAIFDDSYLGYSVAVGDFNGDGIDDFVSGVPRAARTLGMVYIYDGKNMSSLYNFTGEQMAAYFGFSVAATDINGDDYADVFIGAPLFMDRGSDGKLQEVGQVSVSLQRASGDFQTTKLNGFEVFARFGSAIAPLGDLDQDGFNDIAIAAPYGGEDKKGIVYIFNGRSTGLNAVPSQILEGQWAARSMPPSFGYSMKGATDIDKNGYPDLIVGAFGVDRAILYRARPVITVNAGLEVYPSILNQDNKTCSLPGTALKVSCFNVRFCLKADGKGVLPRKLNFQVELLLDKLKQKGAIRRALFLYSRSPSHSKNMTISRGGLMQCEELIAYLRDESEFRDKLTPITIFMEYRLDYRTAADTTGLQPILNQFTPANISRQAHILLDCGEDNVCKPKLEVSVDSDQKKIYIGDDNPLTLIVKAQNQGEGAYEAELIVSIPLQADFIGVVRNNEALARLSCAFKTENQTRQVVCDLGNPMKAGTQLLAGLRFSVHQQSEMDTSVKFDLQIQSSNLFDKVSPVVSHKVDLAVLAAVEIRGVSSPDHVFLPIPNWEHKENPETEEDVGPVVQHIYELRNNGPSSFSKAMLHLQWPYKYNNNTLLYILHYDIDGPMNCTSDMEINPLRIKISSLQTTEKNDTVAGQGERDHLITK
# T1 sequence (P06756 891-1048 partner limits assumed): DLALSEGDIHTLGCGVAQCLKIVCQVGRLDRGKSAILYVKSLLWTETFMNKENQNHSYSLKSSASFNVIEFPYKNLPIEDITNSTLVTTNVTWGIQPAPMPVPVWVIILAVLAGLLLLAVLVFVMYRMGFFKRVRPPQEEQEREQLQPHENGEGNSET
# T1 sequence (P05106 27-788): as the sequence (P05106 27-788) above
# Experimental: Except where stated, all procedures were carried out at 4° C. The peptide column was washed with three volumes of Tris-buffered saline (TBS) containing 1 mM Ca^2+ and Ca^2+ and 25 mM OG and then with TBS containing 1 mM 25 mM octyl thioglucoside (OTG) at room temperature. […] Finally, Ca^2+ and Mg^+2 were added to eluted fractions to achieve final concentrations of 1 mM for both ions.
# Maxisorp microtiter plates were coated with 2 μg/ml human vitronectin dissolved in PBS (50 ml/well) and stored overnight at 4° C. The plates were washed two times with PBS-0.05% Tween-20 (wash buffer) and blocked by incubating with about 150 μl/well of assay buffer (1%, BSA (RIA grade or better) in 50 mM Tris-HCl, 100 mM NaCl, 1 mM MgCl2, CaCl2, MnCl2 pH 7.4) for 60 minutes. Dilutions of standards were prepared and putative inhibitors (Table 2) were dissolved in assay buffer. The blocked plates were emptied and 20 μl/well of inhibitor or standard solution was added to each well. Twenty-five μl of a 30 μg/ml solution of purified αV β3 in assay buffer was pipetted into the coated plate. The final concentration of receptor in the assay well was about 15 μg/ml. The plate was incubated on a shaker for 60 minutes. Meanwhile, for each microtite plate, 6 ml buffer solution containing 1.5 μg/ml of mouse monoclonal antibody specific for β3 is prepared. To this solution was added the secondary antibody which is anti-mouse-Fc-HRP antibody conjugate. For example, for one plate, 6 ml of a 1.5 μg/ml mouse Mab solution was prepared to which was added 1 μl of anti-mouse-Fc-HRP antibody stock, (this represents a 1:6000 dilution of the antibody--HRP conjugate). This mixture was allowed to incubate during the receptor-inhibitor incubation. The assay plates were washed 4 times with PBS-Tween and 50 μl/well of the antibody mixture was then pipetted into the plate for a 60 minute incubation. The plate was washed 4 times and the color reaction was developed with 50 μl/well of 0.67 mg/ml o-phenyldiamine in PBS containing 0.012% H2 O2. Alternatively, 16 mM citric acid, 50 mM Na2 PO4 at pH 5.0 can be used as a substrate buffer. The reaction is stopped with 50 μl/well 1 M H2 SO4. The plates were read at 492-405 nm and the data analyzed by four-parameters fit.
# Briefly, 1:4 mixture of labelled and unlabelled phosphatidylcholine (PC) liposomes was dissolved under nitrogen and diluted with an equal volume of purified receptor (purified as described in Example II) to achieve a fixed predetermined receptor-liposome concentration ratio. This mixture was then dialyzed overnight at 4° C. in phosphate buffered saline (PBS) containing 1 mM Ca^2+. An aliquot of the dialyzed sample was counted to assess radioactive content; the receptor-liposome mixture was then diluted to obtain a set radioactivity per unit volume. […]
# platelets [3] = assay: Baboon ex vivo platelet aggregation (ADP); assay type: in vivo; conditions: baboon animal 2, PRP, ADP 10 μm
# Experimental: At one- and two-hour time points, template bleeding times were measured, and blood samples were drawn to assess the hematology aggregation studies. Platelet aggregation studies were performed as described in Example V using ADP as the stimulus.
# In addition, platelet aggregation studies were conducted on PRP derived from the second animal. Whole blood was drawn at three time points (0, 1 and 2 hours) of both control and experimental shunts.
# platelets [4] = assay: Ex vivo platelet aggregation in canine coronary thrombosis model; conditions: dog; for reduction of ex vivo aggregation relative to control levels: 3 mg/kg; for ex vivo platelet aggregation by all three stimuli: 10 mg/kg
# Experimental: For all ex vivo studies (see FIG. 3), control aggregation values were standardized to the percentages of light transmission observed in PRP and PPP samples (0% and 100%, respectively).
# Animals were randomly assigned to two treatment groups: vehicle control (i.e., normal saline) or RGD peptides at various concentrations. Peptides were administered intra-atrially in both bolus and continuous injections. Each bolus injection consisted of 0.5 to 10 mg/kg and was administered 15 minutes before application of the current. A continuous infusion of the same peptide was then started immediately after completion of this initial injection. Animals received a 25 μg/kg/min to 200 μg/kg/min infusion. The anti-thrombotic effects of the peptides were monitored until 30 minutes after the occurrence of a persistent, occlusive thrombus or five hours after the initiation of electrical stimulation (whichever resulted first). If an occlusive thrombus had not developed within four hours after the initiation of current, the peptide infusion was stopped.
# Platelet counts and ex vivo aggregation studies were performed one hour before and 1, 3, and 5 hours after application of anodal direct current.
# Platelet aggregation was also determined ex vivo at one, three, and five hours after current application. For these studies, arachidonic acid, or collagen was again used to stimulate the platelets.
# [5] = system: Gore-tex vascular graft thrombosis; assay: Platelet and fibrinogen uptake by Gore-Tex grafts in baboon ex vivo shunt; conditions: baboon animal 2, 10 mg/kg bolus IV + 10 mg/kg/hr infusion for two hours
# Experimental: Adult male baboons (weighing 16 to 25 kg) were used in these studies. These were sedated with ketamine hydrochloride (200 to 250 mg intramuscular injection) and maintained under anesthesia with sodium pentobarbital (50 to 75 mg administered intravenously as necessary).
# Twenty-four hours before the ex vivo shunt was established, platelets were isolated from 500 ml of blood from the test animal and labelled with ca. 500 microcuries of indium-111 oxine (Medi+Physics, Emeryville, Calif.), which irreversibly and specifically binds to platelets with an efficiency of 50%. Immediately after labelling, these platelets were then injected back into the animal and allowed to circulate for 24 hours. Immediately before the start of the study, fibrinogen that had been isolated from the animal and labelled with iodine-131 (DuPont Nuclear, Boston, Mass.) was also injected back into the animal. Also at this time, baseline determinations of the clotting and template bleeding times were made, and blood samples were drawn for hematology studies.
# To establish the ex vivo shunt, the femoral artery and vein were percutaneously cannulated with introducer catheters (KMA Inc., Mansfield, Mass.). […]
# Platelet deposition onto the grafts was monitored by dynamic scanning with a gamma camera (Sigma 400, Ohio Nuclear, Inc., Sohon, Ohio), which detects the gamma radiation emitted by the ^111 indium-labelled platelets. […]
# coronary thrombosis = assay: Electrically induced canine coronary thrombosis, time to full occlusion; assay type: in vivo; conditions: dog
# Experimental: Male mongrel dogs weighing 14 to 20 kg were selected based on proper aggregation of their platelets in response to arachidonic acid, collagen, and adenosine disphosphate (ADP) and based on similar weights and hemodynamic properties.
# Before surgery, the animals were anesthetized with sodium pentobarbital (30 mg/kg, i.v.) and then intubated and ventilated on room air with positive pressure using a respirator (Harvard Apparatus, S. Natick, Mass.) at a volume of 30 ml/kg and a frequency of 12 breaths/min. Surgery, performed under aseptic conditions, was begun with the placement of cannulae into the left carotid artery and jugular vein for monitoring arterial blood pressure (Statham P23 pressure transducer, Gould, Inc., Cardiovascular Products, Oxnard, Calif.) and administering intravenous fluids.
# The heart was exposed via a left thoracotomy through the 5th intercostal space. […]
# Animals were randomly assigned to two treatment groups: vehicle control (i.e., normal saline) or RGD peptides at various concentrations. […] The anti-thrombotic effects of the peptides were monitored until 30 minutes after the occurrence of a persistent, occlusive thrombus or five hours after the initiation of electrical stimulation (whichever resulted first). […]
# Coronary thrombosis was quantified as the time to full occlusion. […]
# platelets [6] = assay: Thrombin-stimulated platelet aggregation (Table I); assay type: cell-based, human; conditions: thrombin 2 U/ml, gel-filtered platelets
# Experimental: as §1, with “Platelet aggregation assays were performed following the methods of this Example or those of Example IX.G. Platelet” for “Platelet”
# as §2, with “All aggregation studies were performed at 37° C. with a constantly stirred suspension of 3×10^8 platelets/ml. (Platelet” for “(Platelet”
# Peptide anti-aggregation potencies were determined from dose-responsive curves for the inhibition of the maximum aggregation responses stimulated by physiologic doses of ADP (10 μm) and thrombin (2 U/ml).
# platelets [7] = assay type: cell-based, human; conditions: ADP 10 μm, platelet-rich plasma; read-out: ADP-Stimulated Aggregation (IC50)
# Experimental: All aggregation studies were performed at 37° C. with a constantly stirred suspension of 3×10^8 platelets/ml. (Platelet count was determined with the aid of a hemacytometer.) Peptides and stimulants were added to these suspensions in 1% dilutions. The PRP and gel-filtered platelets were used within three hours from the time of blood collection.
# [8] = Rabbit peripheral blood flow (PBF), laser dopler flow probe; assay type: in vivo; conditions: time 10 min, bolus dose printed with drug
# Experimental: In an alternative series of experiments, (Table 2) PBF was measured quantitatively with a laser dopler flow probe (Perimed). The probe was positioned securely over the vascular bed of one ear and flow monitored continuously. Each inhibitor was infused and CBT measured in the opposing ear. No arterial catheter was placed for blood sampling, consequently XPA was measured in these animals.
substance,measurement,setting,value
(Mpr)RGD(O-Me-Y)RC-NH2 [16A],reactivity relative to 8X in platelet aggregation,platelets [1],about two-fold
Ac--CNPRGD(Y--OMe)RCNH2 [8X],differential inhibition of ligand binding to GP IIb/IIIa,GP IIb/IIIa,inhibits the binding of fibrinogen to GP IIb/IIIa more than it inhibits the binding of fibronectin and vitronectin to the same integrin
FRGDSPDG,IC50,[2],40 nM
G(Pen)GHRGDLRCA [2G],ex vivo platelet aggregation response,platelets [3],completely unresponsive
same,ex vivo ADP-stimulated aggregation,"platelets [4]; 10 mg/kg, 1, 3 and 5 h",substantially inhibited
same,reduction in labelled fibrinogen uptake by graft,[5],78%
same,reduction in labelled platelet uptake by graft,[5],84%
same,"coronary thrombosis, time to full occlusion",coronary thrombosis; 10 mg/kg,did not significantly influence
GNPRGD(O-Me-Y)RD-NH2 [20Q],potency relative to 17J,platelets [1]; times more potent than 17J,about three
same,potency relative to 18J,platelets [1]; times more potent than 18J,about 20
LRGDSPDG,IC50,[2],200 nM
R2 (Pen)GRGDTPCA,IC50,platelets [6],2700 nM
same,IC50,platelets [7],8200 nM
R(Pen GRGDWPCR [4R],reduction of ex vivo aggregation relative to control levels,platelets [4]; one hour,20-58%
same,reduction of ex vivo aggregation relative to control levels,platelets [4]; three and five hours,75-100% and 72-100%
same,ex vivo platelet aggregation by all three stimuli,platelets [4],unresponsive to all modes of stimulation at all time points
same,IC50,platelets [6],530 nM
same,"coronary thrombosis, time to full occlusion",coronary thrombosis; 3 mg/kg,ineffective
R(Pen)GHRGDWRCR [4Q],ex vivo platelet activation by collagen,platelets [4]; 5 mg/kg,near-maximal inhibition
same,ex vivo platelet response to ADP and AA,"platelets [4]; 5 mg/kg, all three time points",completely unresponsive
same,ex vivo platelet aggregation by all three stimuli,platelets [4],prevented platelet aggregation by all three stimuli
same,PBF,[8],9 units
RGD(O-Me-Y)RE-NH2 [21I],reactivity relative to 8X in platelet aggregation,platelets [1],about three-fold
VRGDSPDG,IC50,[2],240 nM
YRGDSPDG,IC50,[2],80 nM
